Test results: patent publication US20230390292A1, “REGIMENS FOR THE TREATMENT OF HAIR LOSS DISORDERS WITH DEUTERATED JAK INHIBITORS” (Sun Pharmaceutical Industries, Inc., priority 2020, published 2023)

Tests used:
Assay type in all cases: in vivo, human
[1] = system: subjects with alopecia areata; assay: Open-label extension study (OLE), SALT score after dose reduction
Procedure: In an ongoing open-label extension study, subjects who were previously enrolled in a qualifying clinical study (including the study described in Example 1) and received either a total daily dose of 16 mg of Compound (I) (CTP-543, phosphate salt), a total daily dose of 24 mg of CTP-543, or placebo, and completed through the 24-week treatment period, were eligible to enroll in an open-label extension study (OLE) and continue to receive treatment with CTP-543 phosphate. A total of 152 subjects were enrolled in the OLE. In the OLE, subjects received daily treatment with CTP-543 at a dose of 8 mg BID or 12 mg BID (see FIG. 8). Dose adjustments were allowed at the investigator's discretion. One subject enrolled in the OLE, who received a daily dose of 24 mg QD of CTP-543 for approximately 9 months (i.e., the 24-week study period and the initial 3 months of the OLE), experienced hair growth at that dose (SALT score of zero, i.e., full regrowth of hair prior to dose reduction). The subject then had their dose reduced to a daily dose of 8 mg BID of CTP-543 phosphate. After approximately 7 months in the OLE receiving the lower daily dose of 8 mg BID of CTP-543, the subject continued to substantially maintain hair regrowth, with a SALT score of 7.92.

[2] = system: adult patients with moderate-to-severe alopecia areata; assay: Phase 2a trial, efficacy by severity of alopecia tool (SALT)
Excerpt: The efficacy of treatment of hair loss disorders such as alopecia areata can be measured in a variety of ways, some of which are known in the art. For example, the “severity of alopecia tool”, otherwise known as SALT, is a validated assessment scale developed by the National Alopecia Areata Foundation working committee—to evaluate the degree of hair loss. See, e.g., Olsen E A, Hordinsky M K, Price V H, et al. Alopecia areata investigational assessment guidelines—Part II. J Am Acad Dermatol 2004: 51: 440-447 (incorporated herein by reference). The SALT score is calculated for a patient by measuring the percentage of hair loss in each of the 4 areas of the scalp and adding the total to achieve a composite score. Hair regrowth is reflected by a decrease in the SALT score. For example, no hair on the scalp would have a SALT score of 100 while complete hair regrowth would be a SALT score of 0. In certain embodiments, methods of treatment as described herein can provide a SALT score improvement of at least 10 points after treatment (for example, from a SALT score of 100 prior to treatment to a SALT score of 90 after treatment). In further embodiments, methods of treatment as described herein can provide a SALT score improvement of at least 20 points, 30 points, 40 points, 50 points, 60 points, 70 points, 80 points, 90 points, or 100 points. In certain embodiments, methods of treatment as described herein can provide after treatment at least a 20% improvement from baseline in the patient's SALT score, or at least a 30% improvement from baseline in the patient's SALT score, or at least a 40% improvement from baseline in the patient's SALT score, or at least a 50% improvement from baseline in the patient's SALT score, or at least a 60% improvement from baseline in the patient's SALT score, or at least a 70% improvement from baseline in the patient's SALT score, or at least a 75% improvement from baseline in the patient's SALT score or at least a 80% improvement from baseline in the patient's SALT score, or at least a 90% improvement from baseline in the patient's SALT score.
(§1) A Phase 2a trial was conducted to evaluate the safety and efficacy of Compound (I) (CTP-543) in subjects with alopecia, with the primary efficacy analysis at week 24. The Phase 2a trial was a double-blind, randomized, placebo-controlled trial to evaluate the safety and efficacy of Compound (I) in adult patients with moderate-to-severe alopecia areata. Patients were sequentially randomized to receive one of three doses of Compound I as the phosphate salt (e.g., 10.5 mg of Compound (I) phosphate salt is equivalent to 8 mg of Compound (I) free base). The doses of Compound (I) were 4, 8 (i.e., about 10.5 mg of Compound (I) phosphate salt), and 12 mg twice daily, and there was also a patient group receiving placebo. The primary outcome measure utilized the severity of alopecia tool (SALT) after 24 weeks of dosing.
Interim top line analysis for the 4 mg, 8 mg, and 12 mg cohorts is discussed below. The primary endpoint for the study was a 50% relative reduction in SALT between Week 24 and baseline.
58% of patients treated with 12 mg BID (twice daily) and 47% of patients treated with 8 mg BID (twice daily) of CTP-543 achieved a ≥50% reduction in their overall SALT score compared to 8.6% placebo (p<0.001). In addition, 42% of patients treated with 12 mg BID (p<0.001) and 29% of patients treated with 8 mg BID (p<0.05) of CTP-543 achieved a ≥75% reduction in their overall SALT score compared to 7% placebo. Further, 36% of patients treated with 12 mg BID (p<0.001) and 16% of patients treated with 8 mg BID (p<0.05) of CTP-543 achieved a ≥90% reduction in their overall SALT score compared to 2% placebo. 21% of patients treated with 4 mg BID of CTP-543 achieved a ≥50% reduction in their overall SALT score compared to 8.6% placebo (not significant). […] Significant changes in SALT score were observed starting at 12 weeks for the 12 mg and 8 mg cohorts compared to placebo (p<0.05).

[3] = system: adult patients with moderate-to-severe alopecia areata; assay: Phase 2a trial, safety (treatment emergent adverse events)
Procedure: as §1
In the preliminary analysis of the placebo, 4 mg, and 8 mg groups, there were only 3 Grade 3/4 hematology events, distributed equally across the placebo, 4 mg, and 8 mg groups.

SMILES: [2H]C1([2H])C([C@@H](CC#N)n2cc(-c3ncnc4[nH]ccc34)cn2)C([2H])([2H])C([2H])([2H])C1([2H])[2H] [CTP-543, (R)-3-(4-(7H-pyrrolo[2,3-d]pyrimidin-4-yl)-1H-pyrazol-1-yl)-3-(cyclopentyl-2,2,3,3,4,4,5,5-d8)propanenitrile]
- SALT score prior to dose reduction ([1]; one subject, 24 mg QD for approximately 9 months): zero
- SALT score after dose reduction ([1]; same subject, approximately 7 months at 8 mg BID after 24 mg QD): 7.92
- separation from placebo ([2]; 4 mg BID, all measures): failed to separate from placebo on all measures
- patients achieving a ≥50% reduction in overall SALT score ([2]; 4 mg BID, week 24, vs 8.6% placebo (not significant)): 21%
- difference from placebo on SALT measures ([2]; 8 mg BID and 12 mg BID, week 24): significantly different from placebo on all SALT measures
- patients achieving a ≥90% reduction in overall SALT score ([2]; 8 mg BID, vs 2% placebo (p<0.05)): 16%
- patients achieving a ≥75% reduction in overall SALT score ([2]; 8 mg BID, vs 7% placebo (p<0.05)): 29%
- patients achieving a ≥50% reduction in overall SALT score ([2]; 8 mg BID, week 24, vs 8.6% placebo (p<0.001)): 47%
- effect of 12 mg BID compared to 8 mg BID ([2]; 12 mg BID vs 8 mg BID): numerically superior and generally produced faster onset and greater effect
- patients achieving a ≥90% reduction in overall SALT score ([2]; 12 mg BID, vs 2% placebo (p<0.001)): 36%
- patients achieving a ≥75% reduction in overall SALT score ([2]; 12 mg BID, vs 7% placebo (p<0.001)): 42%
- patients achieving a ≥50% reduction in overall SALT score ([2]; 12 mg BID, week 24, vs 8.6% placebo (p<0.001)): 58%
- start of significant changes in SALT score compared to placebo ([2]; 12 mg and 8 mg cohorts, p<0.05): 12 weeks
- difference of 12 mg BID and 8 mg BID dose groups from 4 mg BID dose group ([2]; p<0.05): significantly different
- Acne, patients (%) ([3]; 4 mg twice daily): 4 (13.8%)
- Blood creatine phosphokinase increased, patients (%) ([3]; 4 mg twice daily): 3 (10.3%)
- Cough, patients (%) ([3]; 4 mg twice daily): 4 (13.8%)
- Diarrhoea, patients (%) ([3]; 4 mg twice daily): 3 (10.3%)
- Folliculitis, patients (%) ([3]; 4 mg twice daily): 3 (10.3%)
- Headache, patients (%) ([3]; 4 mg twice daily): 5 (17.2%)
- LDL increase, patients (%) ([3]; 4 mg twice daily): 0
- Nasopharyngitis, patients (%) ([3]; 4 mg twice daily): 3 (10.3%)
- Nausea, patients (%) ([3]; 4 mg twice daily): 4 (13.8%)
- Oroharyngeal pain, patients (%) ([3]; 4 mg twice daily): 3 (10.3%)
- Upper respiratory tract infection, patients (%) ([3]; 4 mg twice daily): 2 (6.9%)
- Acne, patients (%) ([3]; 8 mg twice daily): 4 (10.5%)
- Blood creatine phosphokinase increased, patients (%) ([3]; 8 mg twice daily): 2 (5.3%)
- Cough, patients (%) ([3]; 8 mg twice daily): 1 (2.6%)
- Diarrhoea, patients (%) ([3]; 8 mg twice daily): 1 (2.6%)
- Folliculitis, patients (%) ([3]; 8 mg twice daily): 2 (5.3%)
- Headache, patients (%) ([3]; 8 mg twice daily): 10 (26.3%)
- LDL increase, patients (%) ([3]; 8 mg twice daily): 4 (10.5%)
- Nasopharyngitis, patients (%) ([3]; 8 mg twice daily): 3 (7.9%)
- Nausea, patients (%) ([3]; 8 mg twice daily): 4 (10.5%)
- Oroharyngeal pain, patients (%) ([3]; 8 mg twice daily): 2 (5.3%)
- Upper respiratory tract infection, patients (%) ([3]; 8 mg twice daily): 2 (5.3%)
- Acne, patients (%) ([3]; 12 mg twice daily): 6 (16.7%)
- Blood creatine phosphokinase increased, patients (%) ([3]; 12 mg twice daily): 1 (2.8%)
- Cough, patients (%) ([3]; 12 mg twice daily): 2 (5.6%)
- Diarrhoea, patients (%) ([3]; 12 mg twice daily): 0
- Folliculitis, patients (%) ([3]; 12 mg twice daily): 1 (2.8%)
- Headache, patients (%) ([3]; 12 mg twice daily): 7 (19.4%)
- LDL increase, patients (%) ([3]; 12 mg twice daily): 0
- Nasopharyngitis, patients (%) ([3]; 12 mg twice daily): 9 (25.0%)
- Nausea, patients (%) ([3]; 12 mg twice daily): 1 (2.8%)
- Oroharyngeal pain, patients (%) ([3]; 12 mg twice daily): 1 (2.8%)
- Upper respiratory tract infection, patients (%) ([3]; 12 mg twice daily): 7 (19.4%)
- serious adverse events ([3]; 4, 8, 12 mg BID, 24 weeks): no serious adverse events
- tolerability of treatment ([3]; 4, 8, 12 mg BID, 24 weeks): generally well-tolerated
- Grade 3/4 hematology events ([3]; preliminary analysis, total, distributed equally across placebo, 4 mg and 8 mg groups): 3
